Measurements reported in patent publication US5214054A, “Azacyclic carboxylic acid derivatives and their preparation and use” (Novo Nordisk A/S, priority 1988, dated 1993).
Where a name gives a salt, the structure may show the parent alone.

How the values were obtained:
[1] = tested on: [^3 H]-GABA uptake; assay: in vitro inhibition of [^3 H]-GABA uptake; format: biochemical; settings: Male Wistar rat cortical tissue, 60 min, 30° C., pH 7.5, ligand 0.2 nM
Description: The in vitro inhibition of [^3 H]-GABA uptake was assessed essentially by the method of Fjalland (Acta Pharmacol. Toxicol. 42 (1978) 73-76). Male Wistar rat cortical tissue was gently homogenized by hand using a glass teflon homogenizer in 10 volumes of 0.32M sucrose. Incubation was performed in a 40 mM tris HCl buffer (pH 7.5 at 30° C.) containing […], […], 4 mM MgSO4, 2.3 mM CaCl2 and 10 mM glucose, for 60 min. at 30° C. Ligand concentration was 0.2 nM.

[2] = tested on: GABA uptake; settings: background art; cited from earlier work
[3] = background art; cited from earlier work

| Structure (SMILES) | IC50 [1] | inhibition of GABA re-uptake / uptake (in words) [2] | ability to cross the blood-brain barrier (in words) [3] |
| --- | --- | --- | --- |
| O=C(O)[C@@H]1CCCN(CCON=C(c2ccccc2)c2ccccc2)C1 [Example 1, (R)-Diphenylmethanone O-[2-(3-carboxypiperidin-1-yl)ethyl]oxime] | 82 nM | – | – |
| Cc1ccccc1C(=NOCCN1CCC[C@@H](C(=O)O)C1)c1sccc1C [Example 2, (R)-(2-Methylphenyl)-(3-methyl-2-thienyl)methanone O-[2-(3-carboxypiperidin-1-yl)ethyl]oxime hydrochloride] | 44 nM | – | – |
| Cc1ccsc1C(=NOCCN1CCC[C@@H](C(=O)O)C1)c1sccc1C [Example 3, (R)-Bis(3-methyl-2-thienyl)methanone O-[2-(3-carboxypiperidin-1-yl)ethyl]oxime hydrochloride] | 30 nM | – | – |
| CCc1ccccc1C(=NOCCN1CCC[C@@H](C(=O)O)C1)c1sccc1C [Example 4, (R)-(2-Ethylphenyl)-(3-methyl-2-thienyl)methanone O-[2-(3-carboxypiperidin-1-yl)ethyl]oxime hydrochloride] | 52 nM | – | – |
| Cc1ccsc1C(=NOCCN1CCC[C@@H](C(=O)O)C1)c1cccs1 [Example 5, (R)-(3-Methyl-2-thienyl)-(2-thienyl)methanone O-[2-(3-carboxypiperidin-1-yl)ethyl]oxime] | 64 nM | – | – |
| O=C(O)C1CCCN(CCON=C(c2ccccc2)c2ccccc2)C1 (centres unmarked) [Example 25, Diphenylmethanone O-[2-(3-carboxypiperidin-1-yl)ethyl]oxime hydrochloride] | 138 nM | – | – |
| Cc1ccccc1C(=NOCCN1CCCC(C(=O)O)C1)c1sccc1C (centres unmarked) [Example 26, (2-Methylphenyl)-(3-methyl-2-thienyl)methanone O-[2-(3-carboxypiperidin-1-yl)ethyl]oxime hydrochloride] | 58 nM | – | – |
| O=C(O)C1=CCCN(CCON=C(c2ccccc2)c2ccccc2)C1 [Example 45, Diphenylmethanone O-[2-(3-carboxy-1,2,5,6-tetrahydropyridin-1-yl)ethyl]oxime] | 48 nM | – | – |
| Cc1ccsc1C(=NOCCN1CCC=C(C(=O)O)C1)c1sccc1C [Example 46, Bis(3-methyl-2-thienyl)methanone O-[2-(3-carboxy-1,2,5,6-tetrahydropyridin-1-yl)ethyl]oxime hydrochloride] | 59 nM | – | – |
| Cc1ccsc1C(=NOCCN1CCC[C@H](C(=O)O)C1)c1sccc1C [Example 47, (S)-Bis(3-methyl-2-thienyl)methanone O-[2-(3-carboxypiperidin-1-yl)ethyl]oxime hydrochloride] | 51 nM | – | – |
| O=C(O)[C@@H]1CCCN(CCON=CC(c2ccccc2)c2ccccc2)C1 [Example 83, E/Z-(R)-2,2-Diphenylacetaldehyde O-[2-(3-carboxy-piperidin-1-yl)ethyl]oxime hydrochloride] | 217 nM | – | – |
| O=C(O)C1CCCN(CCC=C(c2ccccc2)c2ccccc2)C1 (centres unmarked) [SK&F 89976A, N-(4,4-diphenyl-3-buten-1-yl)nipecotic acid] | – | oral inhibitors of GABA uptake | – |
| O=C(O)C1=CCCN(CCC=C(c2ccccc2)c2ccccc2)C1 [SK&F 100330A, N-(4,4-diphenyl-3-buten-l-yl)guvacine] | – | oral inhibitors of GABA uptake | – |
| O=C(O)CC1CCN(CCC=C(c2ccccc2)c2ccccc2)C1 (stereo not drawn) [SK&F 100561, N-(4,4-diphenyl-3-buten-1-yl)homo-β-proline] | – | oral inhibitors of GABA uptake | – |
| O=C(O)C1CCCN(CCC=C(c2ccccc2)c2cccs2)C1 (centres unmarked) [SK&F 100604J, N-(4-phenyl-4-(2-thienyl)-3-buten-1-yl)nipecotic acid] | – | oral inhibitors of GABA uptake | – |
| O=C(O)C1CCCNC1 (centres unmarked) [piperidine-3-carboxylic acid] | – | potent inhibitor of GABA re-uptake | unable to cross the blood-brain b arrier |
